Experiments:
[1] = In vivo detection of RPCs in muscle tissue (gamma imaging after i.v. 99mTc gluceptate); details: rats, rectus femoris muscle injected with RPC; 1 hour after i.v. injection of 0.5 mCi 99mTc gluceptate
Description: RPCs having the sequences GGGCGGGCGGGC (SEQ ID NO: 13) and GGGCGGGC (SEQ ID NO: 14) were dissolved in sterile saline to give a concentration of 1 μM thiol (i.e., the —SH function groups of cysteine residues). 100 μl of this solution was injected into the rectus femoris muscles of anesthetized rats. Ten minutes after injection, 0.5 mCi of ^99mTc gluceptate-[bis(oxotechnetate(v)glucoheptonate] anion was injected via intravenous catheter. The animals were imaged at 10 minutes and at 1 hour after the injection of the isotope. It was suspected that Tc glucoheptonate can permeate into the interstitium and be taken up non-specifically (e.g., by pinocytosis) by resident cells, thus creating background activity.
Nonetheless, the radioactivity that had accumulated in the injected muscle 1 hour after injection with the RPC containing three consecutive GGGC repeats (SEQ ID NO: 13) or two consecutive GGGC repeats (SEQ ID NO: 14) were 3- or 2-fold higher, respectively, than the radioactivity that had accumulated in the contralateral (control) muscle at that time. No differences in radioactivity accumulated in injected vs. control muscles were detected in animals injected with saline, or an RPC pretreated with N-ethylmaleimide to block oxotechnetate-binding sites.

[2] = Labeling of RPC with 99mTc-glucoheptonate and stability of the metal-RPC complex by reverse-phase HPLC; type: binding
Description: The tetrapeptide WGGC (SEQ ID NO: 1) was incubated with ^99mTc-gluccheptonate. […] The label was ascertained to be stably associated with the peptide for at least 24 hours as determined by reverse-phase high performance liquid chromatography (HPLC) (see, FIG. 7).
FIGS. 6 and 7 are the HPLC traces corresponding to the binding 30 minutes and 24 hours post-injection, respectively. In both traces, the bold line represents radioactivity and the thin line represents absorbance. The naked ^99mTc-glucoheptonate has a retention time of 2 minutes, while the RPC-Tc complex has a retention time of 5 to 9 minutes.

| share of total integral at 2 minutes (retention time of naked 99mTc-glucoheptonate) ([2]; 24 hours, HPLC radioactivity trace (FIG. 7)) [%] | time the label is stably associated with the peptide ([2]; reverse-phase HPLC) | Substance | radioactivity accumulated in the injected muscle vs. the contralateral (control) muscle [1] [fold] | radiation at 2 minutes (retention time of naked 99mTc-glucoheptonate) ([2]; 30 minutes, HPLC radioactivity trace (FIG. 6)) | labeling of the peptide ([2]; incubated with 99mTc-glucoheptonate, within 30 minutes) [%] |
| --- | --- | --- | --- | --- | --- |
|  |  | GGGCGGGC [SEQ ID NO: 14, RPC containing two consecutive GGGC repeats] | 2 |  |  |
|  |  | GGGCGGGCGGGC [SEQ ID NO: 13] | 3 |  |  |
| 0.468 | at least 24 hours | WGGC |  | no radiation is observed above the baseline | 99 |

From patent US20020142297A1, “Compositions and methods for imaging gene expression” (The General Hospital Corporation, a Massachusetts …, priority 1997, published 2002)
